Laboratory results from patent US20120178177A1, “Biological Components Within the Cerebrospinal Fluid” (priority 2009, published 2012).

How the values were obtained:
[1] = system: SH-SY5Y cells; assay: Two-dimensional gel electrophoresis of MPs from SH-SY5Y cells; format: cell-based, human; details: MPs from SH-SY5Y cells treated with Staurosporine 100 and 500 nM vs vehicle; FIG. 5B
Procedure: (§1) The SH-SY5Y cells were maintained and differentiated in cell culture conditions as described under the Materials & Methods section of Example 2. Cells were then treated for 24 hours with Staurosporine at two different concentrations or with vehicle only. At the end of the treatment, culture medium was collected and MPs were isolated and subsequently quantified by flow cytometry. Those results are representative of several independent experiments. The resulting MPs populations have been isolated and characterized by flow cytometry (A) or by two-dimensional gel electrophoresis (B) as described in the Materials and Methods section. The three gels have been compared in an area comprised between approximately 10-60 kDa and pl 3.0 to 7.0. The boxes (named C, 1, and 2) define specific areas of interest in the captured images.
(§2) The human neuronal cell line SH-SY5Y (ATCC CRL-2266) was cultured in MEM/Ham's F12 medium (1:1) supplemented with 10% foetal bovine serum. Cells were seeded at 55,000 cells/cm^2. Cell differentiation was induced by adding 9-cis retinoic acid (5 μM) for 5 days directly to complete culture medium. […]
MPs populations were obtained from Staurosporine-induced SH-SY5Y cells as indicated above. […] Non-protein impurities were removed using the ReadyPrep 2D Cleanup kit prior to isoelectrofocalisation (IEF) steps. […]

[2] = system: SH-SY5Y cells; assay: Quantification of Annexin V-positive MPs released by differentiated SH-SY5Y cells (flow cytometry); format: cell-based, human; details: 24 hours treatment, Staurosporine 100 and 500 nM vs vehicle DMSO 0.1%, FIG. 5A
Procedure: as §1
as §2, with “medium. After 5 days, medium was replaced with complete medium supplemented with BDNF (50 ng/ml) for additional 5 days.” for “medium.”
MPs quantifications were performed by flow cytometry using fluorescein-labelled, His-tagged Annexin V, as indicated in Example 1 for CS-MPs and Plasma MPs.

[3] = system: male SD rats; assay: Quantification of rat CS-MPs in CSF by Annexin V flow cytometry after intracerebroventricular injection; format: in vivo; details: LPS 50 μg/animal intracerebroventricular vs saline; CSF from cisterna magna after 24 hours; FIG. 3A
Procedure: (§3) Two groups of male SD rats (n=8 for each group) were intracerebroventricularly injected with either vehicle (Saline; NaCl 0.9%) or a test substance (Lipopolysaccharides; LPS). After 24 hours, CSF was collected directly in the cisterna magna and blood was obtained by retro-orbital puncture from each animal. CS-MPs and plasma MPs populations were prepared as described in the Materials & Methods of Example 1 and the concentrations of CS-MPs (A) and Plasma MPs (B) populations in the samples were quantified for both groups of animals by flow cytometry. Data are expressed as Mean±SEM (*: p<0.05). […] In a control experiment (C), the CSF and blood samples were collected respectively in the cisterna magna and by retro-orbital, puncture from healthy male SD rats (n=8). CS-MPs and Plasma MPs populations were prepared as described in the Materials & Methods section of Example 1 and then quantified by flow cytometry. Data are expressed as Mean±SEM (*: p<0.05). […]
(§4) The quantifications were performed using a FC500 flow cytometer (Beckman-Coulter, France) by incubating for 30 minutes in the dark each samples (30 μl) with 60 ng of His-tagged, Fluorescein-labelled Annexin V in incubation buffer (2.5 mM CaCl2, 140 mM NaCl, 10 mM HEPES pH 7.4). […] Each sample was then analyzed by flow cytometry. […]

[4] = system: TNFalpha; assay: Gene expression of inflammatory markers in rat brain after intracerebroventricular injection (RT-QPCR); format: in vivo; details: LPS 50 μg/animal intracerebroventricular; rat brain (cortex, striatum, hippocampus); relative to 36B4 mRNA
Procedure: (§5) This experiment was elaborated on the basis of protocols described in previous publications (Sanna P et al., 1995). Briefly, male SD rats (225-250 g, CERJ, France) were anesthetized with pentobarbital (55 mg/kg) and positioned in a stereotaxic frame. Then, they received an intracerebroventricular injection of LPS (50 μg/animal in 3.3 μl of saline buffer) or saline (NaCl 0.9%) using a Kopf apparatus. The coordinates for the sterotaxic injections were −2.3 mm dorsal/ventral, −1.4 mm lateral, and −0.6 mm anterior/posterior from the bregma.
(§6) Total RNA was extracted using Qiagen RNA extraction kits following manufacturer's instructions. Total RNA was treated with DNase I (Ambion Inc., Austin, Tex., USA) at 37° C. for 30 minutes, followed by inactivation at 75° C. for 5 minutes. Real time quantitative PCR (RT-QPCR) assays were performed using an Applied Biosystems 7900 sequence detector. Total RNA (1 μg) was reverse transcribed with random hexamers using Taqman reverse-transcription reagents kit (Applied Biosystems) following the manufacturer's protocol. Gene expression levels were determined by Sybr green assays. 36B4 transcript was used as an internal control to normalize the variations for RNA amounts. Gene expression levels are expressed relative to 36B4 mRNA levels.
(§7) The specific primers used for the quantification were: […]

[5] = system: IL1beta; assay: as above; format: in vivo; details: LPS 50 μg/animal intracerebroventricular; rat brain (cortex, striatum, hippocampus); relative to 36B4 mRNA
Procedure: as §5, §6, §7

[6] = system: male SD rats; assay: Quantification of rat Plasma MPs by Annexin V flow cytometry after intracerebroventricular injection; format: in vivo; details: LPS 50 μg/animal intracerebroventricular vs saline; plasma after 24 hours; FIG. 3B
Procedure: as §3, §4

Row | Compound | protein content of MPs on two-dimensional gel [1] | change in Annexin V-positive MPs in cell culture medium [2] | induction of CS-MP levels [3] [fold] | induction of TNFalpha gene expression [4] [fold] | induction of IL1beta gene expression [5] [fold] | change of Plasma MPs [6]
1 | CN[C@@H]1C[C@H]2O[C@@](C)([C@@H]1OC)n1c3ccccc3c3c4c(c5c6ccccc6n2c5c31)C(=O)NC4 [Staurosporine] | evident enrichment in proteins | significant and dose-dependent increase |  |  |  | 
2 | Lipopolysaccharides [LPS] |  |  | 3 | 6 | 40 | without a simultaneous and significant increase
